The record followed here is ChEMBL document CHEMBL1147302, “Isolation and characterization of an antimalarial agent of the neem tree Azadirachta indica” (J Nat Prod, 1989).

Test [1] concerns Plasmodium falciparum. Kind of test: Antimalarial activity against Plasmodium falciparum after 48 hrs by [3H]hypoxanthine uptake. The test is classed as functional, organism-based.
The test system of test [2] is Plasmodium falciparum. Kind of test: Antimalarial activity against Plasmodium falciparum after 96 hrs by [3H]hypoxanthine uptake. It is filed as functional, organism-based.

In the case of `CC(=O)O[C@@H]1C[C@H]2C(C)(C)C(=O)C=C[C@]2(C)[C@H]2CC[C@@]3(C)[C@H](c4ccoc4)OC(=O)[C@H]4O[C@]43[C@@]21C` [GEDUNIN], the IC50 in the test with Plasmodium falciparum [1] was determined as 1000 nM; in the test with Plasmodium falciparum [2], 300 nM.

The term IC50 denotes the concentration that inhibits the measured activity by half. High values mean weaker potency in that assay, low ones greater potency in that assay.
